Laboratory results taken from US20220298143A1, “Pyrazole Derivatives for FGFR Inhibitor and Preparation Method Thereof” (Etern Biopharma (Shanghai) Co., Ltd., priority 2019, published 2022).
Read-outs that look alike come from different tables or passages of the source.

How the values were obtained:
Hep3B cells = test: Human liver cancer cell Hep3B survival test (CellTiter-Glo); type: cell-based; settings: 72 hours compound treatment
Experimental: Human Liver Cancer Cell Hep3B Survival Test
The human liver cancer Hep3B cell line was from ATCC. The cells were cultured in DMEM liquid medium, and fetal bovine serum (10% FBS) and penicillin-streptomycin (100,000 U/L) were added. The cells were kept at 37° C., 95% humidity and 5% carbon dioxide in the culture medium. During the experiment, Hep3B cells were seeded in a 96-well plate at a density of 3000 cells per well. The volume of the cell suspension was 100 μL per well, and the cells were cultured overnight to attach the cells. The next day, each compound was diluted with DMSO in a three-fold gradient, and 1 μL of the solution of the compound in DMSO was added to the cell culture medium. At the same time, 1 μL of DMSO was used as a control. Three parallel sub-wells were set for each concentration of each compound. Then the cells were placed in a 37° C. incubator. After 72 hours of continuous compound treatment, 50 μL CellTiter-Glo (Promega, Madison Wis.) was added to the cell culture medium. The relative luminescence unit (RLU) of each well was determined and the cell survival rate and compound activity (IC50) were calculated.

FGFR4 = target: T1, FGFR4 (Homo sapiens, UniProt P22455); test: Enzymatic activity test of FGFR inhibitor, Caliper model; type: biochemical
T1 construct: purchased Invitrogen PR4380A
Experimental: (§1) Enzymatic Activity Test of FGFR Inhibitor-Caliper Model
(§2) The specific operation steps were as follows:
(§3) The compound was first serially diluted in 5% DMSO solution, and 5 μL of the compound solution was added to a 384-well plate. The maximum final concentration of the compound is 1 μM, being diluted three times with 10 concentrations.
(§4) 10 μL of kinase solution was added to the 384-well plate and incubated at room temperature for 10 minutes;
(§5) 10 μL of P22 peptide and ATP solution were added to the 384-well plate, and 25 μL of reaction stop buffer was added after a specific time at 28° C.;
(§6) The data was collected in Caliper read and the inhibition rate was calculated according to inhibition rate=(max−conversion)/(max−min)*100, where max is DMSO control, conversion is the reading of the compound treated group, and min is the maximum inhibition control. IC50 value of the compound was calculated with XLfit excel add-in version 5.4.0.8 software.

FGFR2 = FGFR2 (Homo sapiens, UniProt P21802); test: as above; type: biochemical; settings: kinase pre-incubation 10 minutes
FGFR3 = FGFR3 (Homo sapiens, UniProt P22607); test: as above; type: biochemical; settings: kinase pre-incubation 10 minutes
FGFR1 = target: T2, FGFR1 (Homo sapiens, UniProt P11362); test: as above; type: biochemical
T2 construct: purchased Cama (sic; Carna) 08-133
Experimental: as §1, §2, §3, §4, §5, §6

[1] = Compound pharmacokinetic experiment, single intragastric administration; type: in vivo; settings: mouse, plasma, male mice, oral dosage 15 mg/Kg; for Cmax: read-out: Peak plasma concentration Cmax; for AUC: read-out: Plasma exposure AUC
Experimental: Compound Pharmacokinetic Experiment
The pharmacokinetics of the compounds of the present disclosure was determined. This application used the following methods to determine the pharmacokinetic parameters of the compounds.
For the healthy male adult mice used in the study, each group of animals was given a single intragastric administration of 5-100 mg/Kg. Fasting was from 10 hours before administration to 4 hours after administration. Blood was collected at different time points after administration, and the plasma content of the compound was determined (LC-MS/MS). The plasma concentration-time relationship was analyzed with professional software (winnonlin) to calculate the pharmacokinetic parameters of the compound.

[2] = Caliper, kinase pre-incubation 10 minutes, read-out: FGFR4
[3] = Caliper, kinase pre-incubation 10 minutes, read-out: FGFR1

T1 sequence (P22455 22-802): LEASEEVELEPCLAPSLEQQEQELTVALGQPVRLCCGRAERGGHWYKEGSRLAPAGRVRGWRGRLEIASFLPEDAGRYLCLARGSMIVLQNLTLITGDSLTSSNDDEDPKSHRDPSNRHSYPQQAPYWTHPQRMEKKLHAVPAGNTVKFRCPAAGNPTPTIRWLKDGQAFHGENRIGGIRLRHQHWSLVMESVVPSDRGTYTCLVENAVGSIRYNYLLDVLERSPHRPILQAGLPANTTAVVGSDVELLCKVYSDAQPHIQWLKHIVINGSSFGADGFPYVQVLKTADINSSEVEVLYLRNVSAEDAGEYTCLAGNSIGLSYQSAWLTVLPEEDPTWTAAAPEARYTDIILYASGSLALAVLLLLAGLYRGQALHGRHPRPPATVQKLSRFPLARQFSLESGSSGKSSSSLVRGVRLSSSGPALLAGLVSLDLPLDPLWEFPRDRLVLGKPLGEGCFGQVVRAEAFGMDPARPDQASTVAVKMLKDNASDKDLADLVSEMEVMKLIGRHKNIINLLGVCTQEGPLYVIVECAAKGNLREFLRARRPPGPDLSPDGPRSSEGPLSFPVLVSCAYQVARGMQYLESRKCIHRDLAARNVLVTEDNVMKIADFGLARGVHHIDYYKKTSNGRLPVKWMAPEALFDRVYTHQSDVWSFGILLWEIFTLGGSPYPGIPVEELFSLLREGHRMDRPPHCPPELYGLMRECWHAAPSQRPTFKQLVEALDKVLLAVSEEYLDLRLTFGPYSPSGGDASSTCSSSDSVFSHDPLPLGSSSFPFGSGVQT
T2 sequence (P11362 22-822): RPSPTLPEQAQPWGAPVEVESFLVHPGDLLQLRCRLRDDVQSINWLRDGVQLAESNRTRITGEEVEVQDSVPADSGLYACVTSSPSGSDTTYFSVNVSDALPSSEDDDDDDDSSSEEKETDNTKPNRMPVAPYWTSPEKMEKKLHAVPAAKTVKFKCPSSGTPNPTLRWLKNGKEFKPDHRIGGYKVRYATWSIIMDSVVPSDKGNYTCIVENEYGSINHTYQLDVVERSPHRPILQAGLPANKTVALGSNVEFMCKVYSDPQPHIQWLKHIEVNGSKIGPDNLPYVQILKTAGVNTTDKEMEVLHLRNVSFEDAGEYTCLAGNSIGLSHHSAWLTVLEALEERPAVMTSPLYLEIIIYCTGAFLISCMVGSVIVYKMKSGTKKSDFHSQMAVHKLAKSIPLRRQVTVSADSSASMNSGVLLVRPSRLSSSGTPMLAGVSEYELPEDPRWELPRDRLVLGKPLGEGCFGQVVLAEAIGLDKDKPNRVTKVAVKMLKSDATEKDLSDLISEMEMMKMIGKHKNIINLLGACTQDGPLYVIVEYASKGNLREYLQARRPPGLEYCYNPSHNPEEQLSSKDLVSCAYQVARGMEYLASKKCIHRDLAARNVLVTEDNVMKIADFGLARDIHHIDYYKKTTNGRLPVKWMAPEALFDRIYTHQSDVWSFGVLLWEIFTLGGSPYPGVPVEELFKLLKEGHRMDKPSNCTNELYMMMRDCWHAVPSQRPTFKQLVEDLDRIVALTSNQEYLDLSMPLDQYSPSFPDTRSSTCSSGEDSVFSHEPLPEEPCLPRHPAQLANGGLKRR
Chain of FGFR3 (P22607 23-806): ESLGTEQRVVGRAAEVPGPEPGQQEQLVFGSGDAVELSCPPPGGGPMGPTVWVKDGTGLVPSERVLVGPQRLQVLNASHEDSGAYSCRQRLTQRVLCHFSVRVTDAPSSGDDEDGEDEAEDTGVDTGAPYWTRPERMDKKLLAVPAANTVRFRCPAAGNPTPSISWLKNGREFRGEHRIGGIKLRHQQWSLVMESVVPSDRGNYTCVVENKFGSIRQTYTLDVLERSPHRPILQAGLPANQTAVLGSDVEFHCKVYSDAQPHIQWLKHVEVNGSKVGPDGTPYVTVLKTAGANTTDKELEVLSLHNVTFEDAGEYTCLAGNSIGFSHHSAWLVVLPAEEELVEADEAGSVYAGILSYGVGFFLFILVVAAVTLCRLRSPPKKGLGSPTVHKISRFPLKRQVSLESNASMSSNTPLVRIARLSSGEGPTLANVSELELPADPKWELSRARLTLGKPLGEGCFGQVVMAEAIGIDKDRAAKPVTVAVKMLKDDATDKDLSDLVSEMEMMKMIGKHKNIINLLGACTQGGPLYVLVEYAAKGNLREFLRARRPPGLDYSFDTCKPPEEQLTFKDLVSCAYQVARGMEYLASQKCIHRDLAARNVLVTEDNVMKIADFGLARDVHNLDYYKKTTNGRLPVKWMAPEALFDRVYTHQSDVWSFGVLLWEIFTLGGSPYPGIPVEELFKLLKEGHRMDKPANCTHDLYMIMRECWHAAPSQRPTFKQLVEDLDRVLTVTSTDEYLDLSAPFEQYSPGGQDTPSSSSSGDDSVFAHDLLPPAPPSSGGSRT
Chain of FGFR2 (P21802 22-821): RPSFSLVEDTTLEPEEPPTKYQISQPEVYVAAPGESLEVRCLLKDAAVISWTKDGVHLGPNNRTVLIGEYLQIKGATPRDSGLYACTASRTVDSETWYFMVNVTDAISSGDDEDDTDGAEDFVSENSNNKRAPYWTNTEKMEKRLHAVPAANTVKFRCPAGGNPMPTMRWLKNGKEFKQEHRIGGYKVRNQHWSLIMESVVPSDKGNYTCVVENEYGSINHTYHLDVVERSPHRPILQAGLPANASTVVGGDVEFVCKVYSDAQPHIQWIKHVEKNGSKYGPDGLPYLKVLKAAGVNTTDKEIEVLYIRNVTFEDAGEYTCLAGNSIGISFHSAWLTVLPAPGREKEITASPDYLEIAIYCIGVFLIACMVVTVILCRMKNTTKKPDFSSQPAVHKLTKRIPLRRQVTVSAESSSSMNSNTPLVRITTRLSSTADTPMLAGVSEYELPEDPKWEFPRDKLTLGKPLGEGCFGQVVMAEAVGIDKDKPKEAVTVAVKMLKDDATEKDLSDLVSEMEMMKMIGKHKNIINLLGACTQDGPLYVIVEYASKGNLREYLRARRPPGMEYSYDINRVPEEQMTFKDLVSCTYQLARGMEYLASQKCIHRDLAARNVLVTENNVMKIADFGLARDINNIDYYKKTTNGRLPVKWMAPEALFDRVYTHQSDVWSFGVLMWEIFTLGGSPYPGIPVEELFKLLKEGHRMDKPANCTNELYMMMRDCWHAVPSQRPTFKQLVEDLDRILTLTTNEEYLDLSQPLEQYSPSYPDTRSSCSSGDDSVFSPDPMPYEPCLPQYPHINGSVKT

Row | Compound | IC50 (FGFR4; [2]) [nM] | IC50 (FGFR2) [nM] | IC50 (FGFR3) [nM] | IC50 (FGFR1; [3]) [nM] | Cmax [1] [nM] | AUC [1] [µM·h] | IC50 (Hep3B cells) [nM] | IC50 (FGFR4) [nM] | IC50 (FGFR1) [nM]
1 | C=CC(=O)Nc1ccccc1C(=O)Nc1cc(CCc2cc(OC)cc(OC)c2)[nH]n1 [Control a, 2-acrylamido-N-(3-(3,5-dimethoxyphenethyl)-1H-pyrazol-5-yl)benzamide, reference compound] |  | 2.2 | 1.7 | 4.5 | 377 | 0.404 | 5 |  | 
2 | C=CC(=O)Nc1cc(N2CCC(F)(F)CC2)ccc1C(=O)Nc1cc(CCc2cc(OC)cc(OC)c2)n[nH]1 [Compound 7, 2-acrylamido-4-(4,4-difluoropiperidin-1-yl)-N-(3-(3,5-dimethoxyphenethyl)-1H-pyrazol-5-yl)benzamide] | 3.2 | 3.4 | 2.3 | 2.1 |  |  | 6 |  | 
3 | COc1cc(CCc2cc(NC(=O)c3ccc(N4C[C@@H](C)N[C@@H](C)C4)cc3)n[nH]2)cc(OC)c1 [AZD4547, reference compound] |  |  |  |  |  |  | 263 |  | 
4 | C=CC(=O)Nc1cc(N2CCN(CCC(F)(F)F)CC2)cnc1C(=O)Nc1cc(CCc2cc(OC)cc(OC)c2)n[nH]1 [Compound 15, 3-acrylamido-N-(3-(3,5-dimethoxyphenethyl)-1H-pyrazol-5-yl)-5-(4-(3,3,3-trifluoropropyl)piperazin-1-yl)pyridinecarboxamide] | 4.4 | 4.5 | 3.9 | 4.8 |  |  | 12 |  | 
5 | C=CC(=O)Nc1cc(N2CC(F)(F)C2)ccc1C(=O)Nc1cc(CCc2cc(OC)cc(OC)c2)n[nH]1 [Compound 6, 2-acrylamido-4-(3,3-difluoroazetidin-1-yl)-N-(3-(3,5-dimethoxyphenethyl)-1H-pyrazole-5-yl)benzamide] | 2 | 2.3 | 1.7 | 2.4 |  |  | 3 |  | 
6 | C=CC(=O)Nc1cc(N2CCN(CCC(F)(F)F)CC2)cc(F)c1C(=O)Nc1cc(CCc2cc(OC)cc(OC)c2)n[nH]1 [Compound 16, 2-acrylamido-N-(3-(3,5-dimethoxyphenethyl)-1H-pyrazol-5-yl)-6-fluoro-4-(4-(3,3,3-trifluoropropyl)piperazin-1-yl)benzamide] |  |  |  |  |  |  | 0.3 |  | 
7 | C=CC(=O)Nc1cc(N2CCN(CC(F)(F)F)CC2)ccc1C(=O)Nc1cc(CCc2cc(OC)cc(OC)c2)n[nH]1 [Compound 2, 2-acrylamide-N-(3-(3,5-dimethoxyphenethyl)-1H-pyrazol-5-yl)-4-(4-(2,2,2-trifluoroethyl)piperazin-1-yl) benzamide] | 3.3 | 3.7 | 2.8 | 3.3 | 2580 | 7.52 | 0.8 |  | 
8 | C=CC(=O)Nc1cc(N2CCN(CC(F)F)CC2)ccc1C(=O)Nc1cc(CCc2cc(OC)cc(OC)c2)n[nH]1 [Compound 3, 2-acrylamide-4-(4-(2,2-difluoroethyl)piperazin-1-yl)-N-(3-(3,5-dimethoxyphenethyl)-1H-pyrazol-5-yl)benzamide] |  | 5.3 | 4.6 |  |  |  | 3 | 5.7 | 3.6
9 | C=CC(=O)Nc1cc(OCC(F)(F)F)ccc1C(=O)Nc1cc(CCc2cc(OC)cc(OC)c2)n[nH]1 [Compound 5, 2-acrylamido-N-(3-(3,5-dimethoxyphenethyl)-1H-pyrazol-5-yl)-4-(2,2,2-trifluoroethoxy)benzamide] | 2.5 | 2.7 | 2.4 | 2.7 |  |  | 9 |  | 

More lines, main results first:

Row | IC50 (FGFR4; [2]) [nM] | IC50 (FGFR2) [nM] | IC50 (FGFR3) [nM] | IC50 (FGFR1; [3]) [nM] | Cmax [1] [nM] | AUC [1] [µM·h] | Compound | IC50 (Hep3B cells) [nM] | IC50 (FGFR4) [nM] | IC50 (FGFR1) [nM]
10 | 2.7 | 2.8 | 2.3 | 2.7 |  |  | C=CC(=O)Nc1cc(N2CCC(F)(F)C2)ccc1C(=O)Nc1cc(CCc2cc(OC)cc(OC)c2)n[nH]1 [Compound 8, 2-acrylamido-4-(3,3-difluoropyrrolidin-1-yl)-N-(3-(3,5-dimethoxyphenethyl)-1H-pyrazol-5-yl)benzamide] | 8 |  | 
11 | 3.9 | 4.1 | 3 | 2.7 | 663 | 1.42 | C=CC(=O)Nc1cc(N2CCN(CCC(F)(F)F)C(C)C2)ccc1C(=O)Nc1cc(CCc2cc(OC)cc(OC)c2)n[nH]1 (stereo not shown) [Compound 12, 2-acrylamido-N-(3-(3,5-dimethoxyphenethyl)-1H-pyrazol-5-yl)-4-(3-methyl-4-(3,3,3-trifluoropropyl)piperazin-1-yl)benzamide] | 0.5 |  | 
12 | 3.6 | 4.4 | 4.4 | 3.1 |  |  | C=CC(=O)Nc1cc(OCCC(F)(F)F)ccc1C(=O)Nc1cc(CCc2cc(OC)cc(OC)c2)n[nH]1 [Compound 9, 2-acrylamido-N-(3-(3,5-dimethoxyphenethyl)-1H-pyrazol-5-yl)-4-(3,3,3-trifluoropropoxy)benzamide] | 2 |  | 
13 | 5.9 | 5.9 | 5.8 | 6.1 | 344 | 1.15 | C=CC(=O)Nc1cc(N2CCN(CC(F)(F)C(F)(F)F)CC2)ccc1C(=O)Nc1cc(CCc2cc(OC)cc(OC)c2)n[nH]1 [Compound 14, 2-acrylamido-N-(3-(3,5-dimethoxyphenethyl)-1H-pyrazol-5-yl)-4-(4-(2,2,3,3,3-pentafluoropropyl)piperazin-1-yl)benzamide] | 7 |  | 
14 | 3.8 | 4.9 | 3.1 | 3.4 |  |  | C=CC(=O)Nc1cc(N(C)CCC(F)(F)F)ccc1C(=O)Nc1cc(CCc2cc(OC)cc(OC)c2)n[nH]1 [Compound 13, 2-acrylamido-N-(3-(3,5-dimethoxyphenethyl)-1H-pyrazol-5-yl)-4-(methyl(3,3,3-trifluoropropyl)amino)benzamide] | 12 |  | 
15 | 4.4 | 6.1 | 7.4 | 5.7 | 1250 | 2.41 | C=CC(=O)Nc1cc(N2CCN(CCC(F)(F)F)CC2)c(OC)cc1C(=O)Nc1cc(CCc2cc(OC)cc(OC)c2)n[nH]1 [Compound 10, 2-acrylamido-N-(3-(3,5-dimethoxyphenethyl)-1H-pyrazol-5-yl)-5-methoxy-4-(4-(3,3,3-trifluoropropyl)piperazin-1-yl)benzamide] | 3 |  | 
